From ChEMBL document CHEMBL1140101, “Synthesis, binding affinity, and molecular docking analysis of new benzofuranone derivatives as potential antipsychotics” (J Med Chem, 2008)

Columns and labels:
[1] = target: T1, 5-hydroxytryptamine receptor 2C (Homo sapiens, UniProt P28335); assay: Displacement of [3H]mesulergine from human cloned 5HT2C receptor
T1 sequence (P28335 whole entry): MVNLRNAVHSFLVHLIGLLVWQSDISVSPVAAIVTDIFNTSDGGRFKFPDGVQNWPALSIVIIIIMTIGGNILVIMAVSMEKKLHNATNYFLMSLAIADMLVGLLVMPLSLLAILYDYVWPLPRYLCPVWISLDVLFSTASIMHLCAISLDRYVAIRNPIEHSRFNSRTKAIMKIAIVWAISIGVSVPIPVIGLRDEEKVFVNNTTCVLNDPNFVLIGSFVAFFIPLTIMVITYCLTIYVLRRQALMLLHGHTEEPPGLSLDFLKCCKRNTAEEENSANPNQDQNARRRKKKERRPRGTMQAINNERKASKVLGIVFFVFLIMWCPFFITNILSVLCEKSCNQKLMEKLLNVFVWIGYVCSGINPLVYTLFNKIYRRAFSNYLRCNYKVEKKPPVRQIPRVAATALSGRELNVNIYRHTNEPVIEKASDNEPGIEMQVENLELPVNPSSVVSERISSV

[2] = target: T2, 5-hydroxytryptamine receptor 2A (Homo sapiens, UniProt P28223); assay: Displacement of [3H]ketanserin from human cloned 5HT2A receptor
T2 sequence (P28223 whole entry): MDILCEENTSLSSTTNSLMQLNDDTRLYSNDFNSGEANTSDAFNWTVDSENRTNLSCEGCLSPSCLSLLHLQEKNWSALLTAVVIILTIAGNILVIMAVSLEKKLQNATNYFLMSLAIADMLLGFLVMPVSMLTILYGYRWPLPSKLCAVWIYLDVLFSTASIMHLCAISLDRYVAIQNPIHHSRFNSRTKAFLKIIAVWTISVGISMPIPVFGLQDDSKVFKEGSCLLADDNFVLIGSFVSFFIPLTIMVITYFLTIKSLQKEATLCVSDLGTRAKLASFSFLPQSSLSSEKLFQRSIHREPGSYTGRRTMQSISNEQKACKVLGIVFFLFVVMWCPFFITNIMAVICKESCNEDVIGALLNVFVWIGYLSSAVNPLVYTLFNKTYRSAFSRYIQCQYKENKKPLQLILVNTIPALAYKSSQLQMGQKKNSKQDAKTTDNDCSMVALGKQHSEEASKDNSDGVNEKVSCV

[3] = target: T2, 5-hydroxytryptamine receptor 2A; assay: Antagonist activity at human cloned 5HT2A receptor; type: functional

| Compound | Ki [1] [nM] | Ki [2] [nM] | pA2 [3] |
| --- | --- | --- | --- |
| COC(=O)c1coc2c1C(=O)CC(CN1CCC(c3noc4cc(F)ccc34)CC1)C2 (stereo not drawn) | > 10000 | 1.55 | – |
| O=C1CC(CN2CCN(C(=O)c3ccc(F)cc3)CC2)Cc2occc21 (stereo not drawn) | > 10000 | 1320 | – |
| O=C1CC(CN2CCC(C(=O)c3ccc(F)cc3)CC2)Cc2occc21 (stereo not drawn) | 1550 | 95.5 | 7.28 |
| CCOC(=O)c1oc2c(c1C)C(=O)CC(CN1CCC(c3noc4cc(F)ccc34)CC1)C2 (stereo not drawn) | > 10000 | 8.32 | – |
| O=C1CC(CN2CCC(c3noc4cc(F)ccc34)CC2)Cc2oc(-c3ccccc3)cc21 (stereo not drawn) | 3310 | 6.92 | – |
| O=C1CC(CN2CCC(C(=O)c3ccc(F)cc3)CC2)Cc2oc(-c3ccccc3)cc21 (stereo not drawn) | > 10000 | 17.4 | – |
| CCOC(=O)c1oc2c(c1C)C(=O)CC(CN1CCC(C(=O)c3ccc(F)cc3)CC1)C2 (stereo not drawn) | > 10000 | 21.9 | – |
| COC(=O)c1coc2c1C(=O)CC(CN1CCC(C(=O)c3ccc(F)cc3)CC1)C2 (stereo not drawn) | > 10000 | 25.7 | – |

Next, values leading:

| Ki [1] [nM] | Ki [2] [nM] | pA2 [3] | Compound |
| --- | --- | --- | --- |
| 245 | 2.51 | – | O=C1C[C@@H](CN2CCC(c3noc4cc(F)ccc34)CC2)Cc2occc21 |
| 339 | 77.6 | 7.58 | O=C(c1ccc(F)cc1)C1CCN(CCC2CCc3occc3C2=O)CC1 (stereo not drawn) |
| 372 | 5.13 | – | O=C1C[C@H](CN2CCC(c3noc4cc(F)ccc34)CC2)Cc2occc21 |
| – | – | 9.25 | O=C1c2ccoc2CCC1CCN1CCC(c2noc3cc(F)ccc23)CC1 (stereo not drawn) |
| 339 | 5.5 | 7.95 | O=C1CC(CN2CCC(c3noc4cc(F)ccc34)CC2)Cc2occc21 (racemic) |
